Test results: article PMC7158045 (BMC Plant Biology, 2020)
Where a name gives a salt, the structure may show the parent alone.

How the values were obtained:
Test in all cases: biochemical
ZmDRIK1-R187-P492 = biological target: T1, ZmDRIK1-R187-P492 (Zea mays, UniProt C0P4K9); settings: read-out: dTm B, DSF, Boltzmann fit, 0.1% DMSO
T1 construct: kinase domain, R187-P492
T1 sequence (C0P4K9 1-514): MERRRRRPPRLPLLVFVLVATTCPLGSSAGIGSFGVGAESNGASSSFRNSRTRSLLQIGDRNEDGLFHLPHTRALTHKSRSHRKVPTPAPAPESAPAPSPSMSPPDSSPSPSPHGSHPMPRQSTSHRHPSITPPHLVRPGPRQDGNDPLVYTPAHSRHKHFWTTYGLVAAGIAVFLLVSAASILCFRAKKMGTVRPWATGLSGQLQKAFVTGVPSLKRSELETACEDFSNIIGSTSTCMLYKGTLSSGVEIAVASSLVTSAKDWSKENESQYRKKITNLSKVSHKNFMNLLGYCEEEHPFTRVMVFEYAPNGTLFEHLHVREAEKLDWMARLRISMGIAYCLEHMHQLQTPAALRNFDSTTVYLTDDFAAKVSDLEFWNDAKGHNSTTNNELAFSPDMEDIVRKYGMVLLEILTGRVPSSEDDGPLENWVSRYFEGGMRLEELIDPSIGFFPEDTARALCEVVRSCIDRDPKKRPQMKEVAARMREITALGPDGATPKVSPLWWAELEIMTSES

ZmDRIK1-K217-S514 = biological target: T2, ZmDRIK1-K217-S514 (Zea mays, UniProt C0P4K9); settings: read-out: dTm B, sheet ZmDRIK1-K217-S514;; DSF, Boltzmann fit, 0.1% DMSO
T2 construct: kinase domain, K217-S514
T2 sequence (C0P4K9 1-514): T1 sequence (C0P4K9 1-514)

[1] = biological target: T3, ZmDRIK1 (DROUGHT RESPONSIVE INACTIVE KINASE 1), kinase domain (Zea mays, UniProt C0P4K9); settings: read-out: dTm B, sheet ZmDRIK1-R187-S514;; DSF, Boltzmann fit, 0.1% DMSO
T3 construct: gene ZEAMMB73_Zm00001d028770; ZmDRIK1-KD R187-S514 (kinase domain)
T3 sequence (C0P4K9 187-514): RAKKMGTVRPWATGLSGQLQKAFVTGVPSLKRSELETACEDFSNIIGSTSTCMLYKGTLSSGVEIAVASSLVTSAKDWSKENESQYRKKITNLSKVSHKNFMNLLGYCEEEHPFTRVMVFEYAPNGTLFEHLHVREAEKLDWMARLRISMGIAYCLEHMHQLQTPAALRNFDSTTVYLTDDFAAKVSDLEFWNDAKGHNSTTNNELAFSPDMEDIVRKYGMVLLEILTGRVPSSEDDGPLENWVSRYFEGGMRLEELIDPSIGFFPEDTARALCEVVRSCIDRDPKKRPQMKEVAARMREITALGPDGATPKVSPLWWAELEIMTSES

ZmDRIK1-K217-P492 = biological target: T4, ZmDRIK1-K217-P492 (Zea mays, UniProt C0P4K9); settings: read-out: dTm B, sheet ZmDRIK1-K217-P492;; DSF, Boltzmann fit, 0.1% DMSO
T4 construct: kinase domain, K217-P492
T4 sequence (C0P4K9 1-514): T1 sequence (C0P4K9 1-514)

Structure (SMILES)	ΔTm at 10 µM (ZmDRIK1-R187-P492)	ΔTm at 10 µM (ZmDRIK1-K217-S514)	ΔTm at 10 µM [1]	ΔTm at 10 µM (ZmDRIK1-K217-P492)
C[C@H]1[C@H](C)CC[C@]2(C(=O)O)CC[C@]3(C)C(=CC[C@@H]4[C@@]5(C)C[C@@H](O)[C@H](O)[C@@](C)(CO)[C@@H]5CC[C@]43C)[C@H]12 [Asiatic Acid]	-0.41 °C	-0.368 °C	-0.753 °C	-1.33 °C
C#Cc1cccc(Nc2ncnc3cc(OCCOC)c(OCCO)cc23)c1 [OSI-420]	-0.201 °C	-0.412 °C	-1.2 °C	-0.652 °C
CC(C)(C)Cn1c(N)nc2ccc(-c3[nH]c(C(C)(C)C)nc3-c3ccc(F)cc3)nc21 [LY2228820]	-0.267 °C	-0.619 °C	-0.95 °C	-0.453 °C
COC(=O)[C@]12CCC(C)(C)C[C@H]1[C@H]1C(=O)C=C3[C@@]4(C)C=C(C#N)C(=O)C(C)(C)[C@@H]4CC[C@@]3(C)[C@]1(C)CC2 [Bardoxolone Methyl]	-1.1 °C	-1.7 °C	-2.89 °C	-4.07 °C
O=C(c1cccc(Cl)c1F)N1CCN(Cc2cccc(Nc3nccs3)n2)CC1 [MK-8745]	0.983 °C	0.891 °C	0.487 °C	0.174 °C
C#Cc1cccc(Nc2ncnc3cc(OCCOC)c(OCCOC)cc23)c1 [Erlotinib HCl (OSI-744)]	-0.278 °C	-0.264 °C	-0.54 °C	-1.09 °C
COC(=O)Nc1ccc(-c2nc(N3CCOCC3)c3cnn(C4CCN(C(=O)OC)CC4)c3n2)cc1 [WYE-354]	0.97 °C	-0.255 °C	-0.687 °C	-1.11 °C
COc1cc2nccc(Oc3ccc(NC(=O)Nc4cc(C)on4)c(Cl)c3)c2cc1OC [Tivozanib (AV-951)]	-3.15 °C	-0.402 °C	-0.0903 °C	-3.26 °C
C=CC(=O)N1CCN(c2nc(=O)n(-c3c(C)ccnc3C(C)C)c3nc(-c4c(O)cccc4F)c(F)cc23)[C@@H](C)C1 [K-Ras(G12C) inhibitor 9]	-0.298 °C	-0.321 °C	-0.658 °C	-0.935 °C
Nc1nc(Nc2ccc(S(N)(=O)=O)cc2)nn1C(=O)c1c(F)cccc1F [JNJ-7706621]	-0.0807 °C	-0.319 °C	-0.794 °C	-0.924 °C
CNC(=O)c1nn(C)c2c1C(C)(C)Cc1cnc(Nc3ccc(N4CCN(C)CC4)cc3)nc1-2 [Milciclib (PHA-848125)]	-0.101 °C	-0.233 °C	-0.178 °C	-0.0433 °C
C[C@@H](Oc1cc(-n2cnc3ccc(CN4CCN(C)CC4)cc32)sc1C(N)=O)c1ccccc1C(F)(F)F [GSK461364]	-0.19 °C	-0.15 °C	-1.05 °C	-0.796 °C
O=C(NOCC(O)CO)c1cc(Br)c(F)c(F)c1Nc1ccc(I)cc1F (stereo not shown) [PD318088]	0.042 °C	-0.114 °C	-0.924 °C	-1.33 °C
O=c1[nH]c2ccc(Cl)cc2c(N[C@@H]2CN3CCC2CC3)c1-c1nc2ccccc2[nH]1 [CHIR-124]	-0.356 °C	-0.3 °C	-0.602 °C	-0.621 °C
O=C(O)[C@]1(Cc2cccc(Nc3nccs3)n2)CC[C@@H](Oc2cccc(Cl)c2F)CC1 [MK-5108 (VX-689)]	-0.282 °C	-0.299 °C	-1.14 °C	-0.754 °C
N#CC1(c2ccc(NC(=O)c3cccnc3NCc3ccncc3)cc2)CCCC1 [Apatinib]	-0.28 °C	-0.311 °C	-0.808 °C	-0.944 °C
COc1ccc(C(=O)Nc2sc3c(c2C(N)=O)CCCC3)cc1OC [TCS 359]	-0.318 °C	-0.549 °C	0.606 °C	-0.245 °C
Cc1cc(O)c2c(c1)C(=O)c1cccc(O)c1C2=O [Chrysophanic Acid]	-0.205 °C	-0.229 °C	-0.414 °C	-1.17 °C
Oc1ccc(Nc2nc(-c3ccc(Cl)cc3)cs2)cc1 [SKI II]	-2.86 °C	-1.52 °C	0.0373 °C	-0.22 °C
COc1ccc(-c2ccc3c(N4CCOCC4)nc(N4C[C@@H](C)O[C@@H](C)C4)nc3n2)cc1CO [KU-0063794]	-0.299 °C	-0.302 °C	-0.516 °C	-1.21 °C
O=c1cc(CN2CCOCC2)occ1OCCCCCSc1ccnc2cc(C(F)(F)F)ccc12 [EHT 1864]	-0.298 °C	-0.387 °C	-0.648 °C	-0.4 °C
Cn1cnc2c(F)c(Nc3ccc(Br)cc3F)c(C(=O)NOCCO)cc21 [MEK162 (ARRY-162)]	-0.189 °C	-0.461 °C	-0.978 °C	-1.3 °C
Oc1c2ccccc2c2c3c(cccc13)N=N2 [SP600125]	-0.115 °C	-0.115 °C	-0.63 °C	-1.06 °C

More lines, now with the values ahead:

ΔTm at 10 µM (ZmDRIK1-R187-P492)	ΔTm at 10 µM (ZmDRIK1-K217-S514)	ΔTm at 10 µM [1]	ΔTm at 10 µM (ZmDRIK1-K217-P492)	Structure (SMILES)
-0.0503 °C	0.0902 °C	-2.05 °C	-0.914 °C	Cc1ccc(C(=O)Nc2cccc(C(F)(F)F)c2)cc1Nc1nc(-c2cccnc2)nc2c1cnn2C [NVP-BHG712]
-0.00337 °C	-0.0855 °C	-0.816 °C	-0.147 °C	CN(C)Cc1cccc(N/C(=C2\C(=O)Nc3cc(C(N)=O)ccc32)c2ccccc2)c1 [BIX 02188]
-0.184 °C	-0.209 °C	-0.644 °C	-0.905 °C	CO[C@@H](C(=O)N1Cc2[nH]nc(NC(=O)c3ccc(N4CCN(C)CC4)cc3)c2C1)c1ccccc1 [Danusertib (PHA-739358)]
-0.521 °C	-2.01 °C	1.64 °C	3.91 °C	N#Cc1c(Oc2ccc(F)c(NC(=O)Cc3cccc(C(F)(F)F)c3)c2)ccc2nc(NC(=O)C3CC3)sc12 [TAK-632]
-0.365 °C	-0.601 °C	-1.05 °C	-1.09 °C	N#Cc1c(NC(=O)c2cccc3ccccc23)sc2c1CCCC2 [JNK Inhibitor IX]
-0.136 °C	-0.0845 °C	-0.944 °C	-0.973 °C	Cc1cc(C(C)Nc2ccccc2)c2nc(N3CCOCC3)cc(=O)n2c1 (stereo not shown) [TGX-221]
-0.238 °C	-0.242 °C	-0.877 °C	-0.694 °C	COc1ccc(S(=O)(=O)N(C(C)=O)c2ccccc2/C=C/c2cc[n+]([O-])cc2)cc1 [HMN-214]
-0.332 °C	-0.366 °C	-0.841 °C	-1.08 °C	Nc1ncnc2c1c(-c1cccc(OCc3ccccc3)c1)cn2[C@H]1C[C@@H](CN2CCC2)C1 [NVP-AEW541]
-0.246 °C	-0.217 °C	-0.818 °C	-0.773 °C	Cc1ccc(NC(=O)c2ccc(CN3CCN(C)CC3)cc2)cc1Nc1nc(-c2cccnc2)cs1 [Masitinib (AB1010)]
-0.214 °C	-0.418 °C	-1 °C	-0.965 °C	Cc1ccc(NC(=O)c2cccc(N(C)C)c2)cc1NC(=O)c1ccc(O)cc1 [ZM 336372]
-0.414 °C	-0.66 °C	-0.711 °C	-4.15 °C	Cc1ccc(F)c(NC(=O)Nc2ccc(-c3cccc4[nH]nc(N)c34)cc2)c1 [Linifanib (ABT-869)]
-0.39 °C	-0.482 °C	-0.951 °C	-0.505 °C	Cc1ccc(C(=O)Nc2ccc(CN3CCN(C)CC3)c(C(F)(F)F)c2)cc1C#Cc1cnc2cccnn12 [Ponatinib (AP24534)]
-0.284 °C	-0.33 °C	-0.54 °C	-0.95 °C	CN1CCN(c2cccc(Nc3nc4c(-c5ccc(S(C)(=O)=O)cc5)cccn4n3)c2)CC1 [CEP-33779]
-1.9 °C	-0.146 °C	-1.06 °C	-0.816 °C	Cc1cc(F)c(Nc2ncnc3cc(OCc4ccccc4)ccc23)cc1O [ZM 323881 HCl]
